Results taken from US11453671B2, “Pyrazolopyrimidine inhibitors of JAK kinases and uses thereof” (Genentech, Inc., priority 2020, dated 2022).

Columns and labels:
[1] = Cell cytotoxicity assay Jurkat (CellTiter-Glo, 72 hours); type: cell-based; details: human, Jurkat clone E6-1 cells, read-out: Cytotox Jurkat EC50
Description: (§1) Cytotoxicity assays. Hepatocyte toxicity, general cytotoxicity or cytotoxicity of unknown mechanism is an undesirable feature for a potential drug, including inhaled drugs. It may be of benefit for an inhaled JAK1 or JAK1/JAK2 inhibitor to have low intrinsic cytotoxicity against various cell types. Typical cell types used to assess cytotoxicity include both primary cells such as human hepatocytes, and proliferating established cell lines such as Jurkat and HEK-293. […] Methods of measuring cytotoxicity are known in the art. In some embodiments, compounds described herein were tested as follows:
(§2) (a) Jurkat and HEK293T cells were maintained at a sub confluent density in T175 flasks. Cells were plated at 450 cells/45 μl medium in Greiner 384 well black/clear tissue culture treated plates. (Greiner Catalog #781091). After dispensing cells, plates were equilibrated at room temperature for 30 minutes. After 30 minutes at room temperature, cells were incubated overnight at 37° C. in a CO2 and humidity controlled incubator. The following day, cells were treated with compounds diluted in 100% DMSO (final DMSO concentration on cells=0.5%) with a 10 point dose-response curve with a top concentration of 50 μM. Cells and compounds were then incubated for 72 hours overnight at 37° C. in a CO2 and humidity controlled incubator. After 72 hours of incubation, viability was measured using CellTiterGlo® (Promega Catalog #G7572) to all wells. After incubation at room temperature for 20 minutes, plates were read on EnVision™ (Perkin Elmer Life Sciences) using luminescence mode;
(§3) A549 (ATCC® CCL-185™), Jurkat clone E6-1 (ATCC® TIB-152™) and HEK-293T (ATCC® CRL-1573™) cells maintained at a sub-confluent density in T175 flasks were used. Cells in exponential growth phase were plated (450 cells in 45 μL of medium) in Greiner 384-well black/clear tissue culture treated plates (Greiner Catalog No. 781091). After dispensing cells, plates were allowed to equilibrate at room temperature for 30 minutes, after which time the cell plates were placed overnight in a 37° C. CO2 and humidity-controlled incubator. The following day, cells were treated with test agent diluted in 100% DMSO (0.5% final DMSO concentration on cells) with a 10-point titration and a top concentration of 50 μM. Cells and compounds were then incubated for 72 hours in a 37° C. CO2 and humidity-controlled incubator, after which time cell viability was measured by adding CellTiter-Glo® (Promega G7572) reagent to all wells. Plates were incubated at room temperature for 20 minutes and then the well luminescence was read on an EnVision plate reader (Perkin Elmer Life Sciences).

[2] = Cell cytotoxicity assay A549 (CellTiter-Glo, 72 hours); type: cell-based; details: human, A549 cells, read-out: Cytotox A549 EC50
Experimental: as §3

[3] = Cell cytotoxicity assay HEK-293T (CellTiter-Glo, 72 hours); type: cell-based; details: human, HEK-293T cells, read-out: Cytotox K-293 EC50
Description: as §1, §2, §3

[4] = test system: JAK1: IL-13-stimulated STAT6 phosphorylation in BEAS-2B cells; experiment: P-STAT6 BEAS-2B+IL-13 Cell Assay; type: cell-based, human; details: Homo sapiens, BEAS-2B, IL-13 stimulation, read-out: Cellular JAK1 PSTAT6 BEAS2B + IL13 IC50
Experimental: P-STAT6 BEAS-2B+IL-13 Cell Assay
In order to study the effect of JAK1 inhibitors in a cell line that is relevant to the cell biology of human asthma, an IL-13-stimulated STAT6 phosphorylation assay in the human lung bronchial epithelial BEAS-2B cell line was developed.
BEAS-2B cells (ATCC® CRL-9609™) were grown in Bronchial Epithelial Growth Medium (BEGM) (Lonza Catalog No. CC-3170; Walkersville, Md.; or PromoCell Catalog No. C-21060; Heidelberg, Germany). Test compound stock solutions (0.5 mM in DMSO) were serially diluted 1:2 in DMSO to generate a 10-point concentration curve (at 500×test concentration), which was further diluted by a 50-fold dilution step in BEGM to generate a 10× concentration curve (in 2% DMSO). Cells were plated at 100,000 cells/well in 200 μL of BEGM in 96-well plates and incubated for 48 hours at 37° C. in a humidified incubator. Medium was aspirated from the cells and replaced with 70 μL of fresh BEGM. Diluted test compound (10 μL; or 2% DMSO in assay medium) was added to the cells, and the plates were incubated for 1 hour at 37° C. in a humidified incubator. Twenty μL of 250 ng/mL human recombinant IL-13 (Bio Techne Catalog No. 213-ILB) was then added to the cells and incubated for 15 minutes at 37° C. Medium was aspirated from the cells and 60 μL of ice-cold 1×cell lysis buffer (Cell Signaling Technologies; Catalog No. 9803S) containing 1 mM PMSF was added to the cells. Assay plates were incubated at −80° C. for at least 1 hour. P-STAT6 was measured by coating GAR plates (MSD; Catalog No. L45RA-1) with rabbit anti-human total STAT6 antibody (Cell Signaling Technologies; Catalog No. 9362S), incubating the cell lysates in the coated plates overnight at 4° C., and then detecting with mouse anti-phospho-STAT6 (Tyr641) Clone 16E12 antibody (Millipore; Catalog No. 05-590, custom labeled by MSD with SULFO-tag) using standard MSD plate processing, washing, and detection protocols. Plates were read on the MESO SECTOR S600. Data Analysis
Data analysis was performed by subtracting negative control values from all wells and determining percent of control using the positive control values; the IC50 was determined with a four-parameter logistic fit model as shown in Equation 4.

[5] = molecular target: T1, recombinant human JAK1 kinase domain protein (Residues 854-1154) (Homo sapiens, UniProt P23458); experiment: JAK1 biochemical assay (microfluidic mobility shift, peptide phosphorylation); details: 25 μM ATP, 1 nM total JAK1; read-out: Enzyme JAK1 Ki
T1 construct: human JAK1 kinase domain protein (Residues 854-1154); purchased Proteros Biostructures GmbH (Martinsried, Germany); host or cells: insect cells
Description: JAK1 and JAK2 Biochemical Assays

[6] = molecular target: Recombinant human JAK2 kinase domain protein (Residues 812-1132) (Homo sapiens, UniProt O60674); experiment: JAK2 biochemical assay (microfluidic mobility shift, peptide phosphorylation); details: Enzyme JAK2 Ki (nM), 25 μM ATP, 0.2 nM total JAK2
[7] = Table 4, methyl-desmethyl analog pairs
[8] = Table 3, 72 hours, top concentration of 50 μM

T1 sequence (P23458 854-1154): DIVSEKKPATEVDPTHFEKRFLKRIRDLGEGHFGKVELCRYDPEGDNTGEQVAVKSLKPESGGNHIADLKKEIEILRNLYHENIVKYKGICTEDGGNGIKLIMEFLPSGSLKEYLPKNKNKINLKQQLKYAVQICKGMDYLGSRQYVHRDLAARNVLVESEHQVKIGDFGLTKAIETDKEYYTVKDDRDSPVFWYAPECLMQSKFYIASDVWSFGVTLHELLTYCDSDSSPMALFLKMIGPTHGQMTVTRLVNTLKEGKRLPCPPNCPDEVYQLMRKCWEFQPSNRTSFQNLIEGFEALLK
Chain of Recombinant human JAK2 kinase domain protein (Residues 812-1132) (O60674 812-1132): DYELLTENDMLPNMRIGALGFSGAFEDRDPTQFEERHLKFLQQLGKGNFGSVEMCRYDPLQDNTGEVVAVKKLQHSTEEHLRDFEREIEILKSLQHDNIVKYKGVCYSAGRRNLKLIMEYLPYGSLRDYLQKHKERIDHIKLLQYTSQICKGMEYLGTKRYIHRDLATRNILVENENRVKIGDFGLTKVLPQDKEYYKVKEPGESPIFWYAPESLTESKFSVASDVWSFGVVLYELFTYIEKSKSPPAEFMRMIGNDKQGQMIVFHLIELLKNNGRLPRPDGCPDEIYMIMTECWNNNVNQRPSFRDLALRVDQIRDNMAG

Ki [5]	Ki [6]	SMILES	EC50 at 72 h [1, 7]	EC50 at 72 h [2, 7]	EC50 at 72 h [3, 7]	EC50 at 72 h [1, 8]	EC50 at 72 h [2, 8]	EC50 at 72 h [3, 8]	IC50 [4]
		CS(=O)(=O)c1ccc(OC(F)F)c(-c2n[nH]cc2NC(=O)c2cnn3cccnc23)c1 [Example 4 in WO201708 9390, reference compound]	6200 nM	22000 nM	2100 nM				
0.48 nM		CCS(=O)(=O)c1ccc(OC(F)F)c(-c2nn(C)cc2NC(=O)c2cnn3cccnc23)c1 [Example 6, N-[3-[2-(difluoromethoxy)-5-ethylsulfonyl-phenyl]-1-methyl-pyrazol-4-yl]pyrazolo[1,5-a]pyrimidine-3-carboxamide]	21500 nM	6750 nM	6050 nM	21500 nM	6750 nM	6050 nM	18 nM
0.31 nM	0.33 nM	Cn1cc(NC(=O)c2cnn3cccnc23)c(-c2cc(S(=O)(=O)c3cnn(CCN)c3)ccc2OC(F)F)n1 [Example 47, N-[3-[5-[1-(2-aminoethyl)pyrazol-4-yl]sulfonyl-2-(difluoromethoxy)phenyl]-1-methyl-pyrazol-4-yl]pyrazolo[1,5-a]pyrimidine-3-carboxamide]							210 nM
0.39 nM	0.21 nM	N#CCn1cc(NC(=O)c2cnn3cccnc23)c(-c2cc(S(=O)(=O)C3COC3)ccc2OC(F)F)n1 [Example 51, N-[1-(cyanomethyl)-3-[2-(difluoromethoxy)-5-(oxetan-3-ylsulfonyl)phenyl]pyrazol-4-yl]pyrazolo[1,5-a]pyrimidine-3-carboxamide]							100 nM
2.2 nM	1 nM	CN1CC(n2cc(NC(=O)c3cnn4cccnc34)c(-c3cc(S(=O)(=O)C4CC4)ccc3OC(F)F)n2)C1 [Example 52, N-[3-[5-cyclopropylsulfonyl-2-(difluoromethoxy)phenyl]-1-(1-methylazetidin-3-yl)pyrazol-4-yl]pyrazolo[1,5-a]pyrimidine-3-carboxamide]							96 nM
0.94 nM	0.19 nM	Cn1cc(NC(=O)c2cnn3cccnc23)c(-c2cc(S(=O)(=O)c3cnn(CCN4CCC4)c3)ccc2OC(F)F)n1 [Example 53, N-[3-[5-[1-[2-(azetidin-1-yl)ethyl]pyrazol-4-yl]sulfonyl-2-(difluoromethoxy)phenyl]-1-methyl-pyrazol-4-yl]pyrazolo[1,5-a]pyrimidine-3-carboxamide]							50 nM
1.2 nM	0.21 nM	CN1CCN(CCn2cc(S(=O)(=O)c3ccc(OC(F)F)c(-c4nn(C)cc4NC(=O)c4cnn5cccnc45)c3)cn2)CC1 [Example 54, N-[3-[2-(difluoromethoxy)-5-[1-[2-(4-methylpiperazin-1-yl)ethyl]pyrazol-4-yl]sulfonyl-phenyl]-1-methyl-pyrazol-4-yl]pyrazolo[1,5-a]pyrimidine-3-carboxamide]							140 nM
2 nM	0.93 nM	CN1C=Cc2ccc(S(=O)(=O)c3ccc(OC(F)F)c(-c4nn(C)cc4NC(=O)c4cnn5cccnc45)c3)cc2C1 [Example 62, N-[3-[2-(difluoromethoxy)-5-[(2-methyl-1H-isoquinolin-7-yl)sulfonyl]phenyl]-1-methyl-pyrazol-4-yl]pyrazolo[1,5-a]pyrimidine-3-carboxamide]							150 nM
1.9 nM	0.84 nM	CN1C=Cc2cc(S(=O)(=O)c3ccc(OC(F)F)c(-c4nn(C)cc4NC(=O)c4cnn5cccnc45)c3)ccc2C1 [Example 64, N-[3-[2-(difluoromethoxy)-5-[(2-methyl-1H-isoquinolin-6-yl)sulfonyl]phenyl]-1-methyl-pyrazol-4-yl]pyrazolo[1,5-a]pyrimidine-3-carboxamide]							210 nM
0.72 nM	0.24 nM	Cn1cnc(S(=O)(=O)c2ccc(OC(F)F)c(-c3nn(C)cc3NC(=O)c3cnn4cccnc34)c2)c1 [Example 65, N-[3-[2-(difluoromethoxy)-5-(1-methylimidazol-4-yl)sulfonyl-phenyl]-1-methyl-pyrazol-4-yl]pyrazolo[1,5-a]pyrimidine-3-carboxamide]							72 nM
0.55 nM	0.18 nM	Cn1cc(NC(=O)c2cnn3cccnc23)c(-c2cc(S(=O)(=O)c3c[nH]cn3)ccc2OC(F)F)n1 [Example 66, N-[3-[2-(difluoromethoxy)-5-(1H-imidazol-4-ylsulfonyl)phenyl]-1-methyl-pyrazol-4-yl]pyrazolo[1,5-a]pyrimidine-3-carboxamide]							380 nM
0.48 nM	0.24 nM	Cn1cc(NC(=O)c2cnn3cccnc23)c(-c2cc(S(=O)(=O)c3cncnc3)ccc2OC(F)F)n1 [Example 67, N-[3-[2-(difluoromethoxy)-5-pyrimidin-5-ylsulfonyl-phenyl]-1-methyl-pyrazol-4-yl]pyrazolo[1,5-a]pyrimidine-3-carboxamide]							25 nM
		CCS(=O)(=O)c1ccc(OC(F)F)c(-c2n[nH]cc2NC(=O)c2cnn3cccnc23)c1 [Example. 192 in WO201708 9390, reference compound]	790 nM	2370 nM	437 nM				
		O=C(Nc1c[nH]nc1-c1cc(S(=O)(=O)C(F)F)ccc1OC(F)F)c1cnn2cccnc12 [reference compound]	160 nM	260 nM	38 nM				

SMILES	Ki [5]	Ki [6]	EC50 at 72 h [1, 7]	EC50 at 72 h [2, 7]	EC50 at 72 h [3, 7]	EC50 at 72 h [1, 8]	EC50 at 72 h [2, 8]	EC50 at 72 h [3, 8]	IC50 [4]
Cn1cc(NC(=O)c2cnn3cccnc23)c(-c2cc(S(=O)(=O)c3cnn(C4CN5CCC4CC5)c3)ccc2OC(F)F)n1 (centres unmarked) [Example 55, N-[3-[2-(difluoromethoxy)-5-(1-quinuclidin-3-ylpyrazol-4-yl)sulfonyl-phenyl]-1-methyl-pyrazol-4-yl]pyrazolo[1,5-a]pyrimidine-3-carboxamide]	0.93 nM	0.98 nM							71 nM
